Reference: patent EP0155244A2, “1-Ethyl-6-fluoro-7-(1H-pirrol-1-yl)-1,4-dihydro-4-oxoquinoline-3-carboxylic acid: preparation and antimicrobial activities” (priority 1985, dated 1985)
In brackets after ≈: the same amount, converted by molar mass. Like-named read-outs stand apart in the source and are kept apart here.

Tests used:
Escherichia coli = assay: In vitro antibacterial activity, M.I.C. by serial twofold dilution method on Mueller-Hinton agar; type: cell-based; settings: E.Coli, 20 strains, pH 7.2, reading 18 h after incubation at 37°C; for MIC: Escherichia coli
Procedure: (§1) Derivatives (1) and (9) were tested for the in vitro antibacterial activities against Gram-positive and Gram-negative bacteria.Nalidixic acid,pipemidic acid,- piromidic acid and enoxacin were used as positive controls for antibacterial activities.
(§2) Minimum inhibitory concentrations (M.I.C.s) were determined using the serial twolfold dilution method; lectures were performed after incubation at 37° for 18 hours.
(§3) For the experiments the substances were dissolved in NaOH 0.1 N(10 mg/ml);further dilutions in the test medium furnished the required concentrations, generally in the range from 0. 05µg/ml to 100 µg/ml.
(§4) The cultures were obtained on B.H.I. (B.B.L.) after 18 hours incubation at 37°.Tests were carried out using Mueller-Hinton agar (B.B.L.) and inocula were 10^4 bacteria.
(§5) Media M.I.C. values nX (c at least 200 max µg/ml) were calculated by the equation [formula] where si is the number of sensitive strains at the given concentration ci and st is the whole number of the sensitive strains.
(§6) Strains with M.I.C.>200µg/ml are regarded as resistant (R) and are expressed in percentage (%) by the equation : [formula] where N is the whole number of tested strains and N is t s the number of sensitive strains.
(§7) The following species of bacteria freshly isolated from various clinical specimens were tested: 16 strains of […], 10 strains of Staphylococcus spp, 15 strains of Streptococcus ovalis,3 strains of Streptococcus spp, 18 strains of Klebsiella pneumoniae,20 strains of Escherichia coli,ll strains of Salmonella spp (3 S.typhi,l S.paratyphi A,S.paratyphi B, 4 S enteritidis, 1 S.wien and S.infantis,42 strains of Proteus spp (28 P.mirabilis, 8 P.vulgaris,3 P.rettgeri,2 P.morganii and 1 Providencia ) and 8 strains of Pseudomonas aeruginosa.

Klebsiella pneumoniae = assay: as above; type: cell-based; settings: 18 strains, pH 7.2, reading 18 h after incubation at 37°C
Procedure: as §1, §2, §3, §4, §5, §6, §7

Proteus spp = assay: as above; type: cell-based; settings: for MIC: read-out: nX̄ = MIC mean values of sensitive strains
Procedure: as §1, §2, §3, §4, §5, §6, §7

Pseudomonas aeruginosa = assay: as above; type: cell-based; settings: for R% = percentage of resistant strains / MIC: Pseudomonas aeruginosa, 8 strains, pH 7.2, reading 18 h after incubation at 37°C
Procedure: as §1, §2, §3, §4, §5, §6, §7

Salmonella spp = assay: as above; type: cell-based; settings: 11 strains, pH 7.2, reading 18 h after incubation at 37°C
Procedure: as §1, §2, §3, §4, §5, §6, §7

Staphylococcus pyogenes = assay: as above; type: cell-based; settings: 16 strains, pH 7.2, reading 18 h after incubation at 37°C; for MIC: Staphylococcus aureus
Procedure: as §1, §2, §3, §4, §5, §6, §7

Staphylococcus spp = assay: as above; type: cell-based; settings: 10 strains, pH 7.2, reading 18 h after incubation at 37°C
Procedure: as §1, §2, §3, §4, §5, §6, §7

Streptococcus ovalis = assay: as above; type: cell-based; settings: 15 strains, pH 7.2, reading 18 h after incubation at 37°C
Procedure: as §1, §2, §3, §4, §5, §6, §7

Streptococcus spp = assay: as above; type: cell-based; settings: 3 strains, pH 7.2, reading 18 h after incubation at 37°C
Procedure: as §1, §2, §3, §4, §5, §6, §7

Gram-positive bacteria = assay: In vitro antibacterial activity, summary for Gram-positive bacteria; type: cell-based, Staphylococcus and Streptococcus
Procedure: as §1, §2, §3, §4, §5, §6, §7

Enterobacteriaceae = assay: In vitro antibacterial activity, summary for Enterobacteriaceae; type: cell-based
Procedure: as §1, §2, §3, §4, §5
Strains with M.I.C.>200µg/ml are regarded as resistant (R) and are expressed in percentage (%) by the equation : [formula] where N is the whole number of tested strains and N is t s the number of sensitive strains. […]

[1] = read-out: nX̄ = MIC mean values of sensitive strains
[2] = Proteus spp, 42 strains, pH 7.2, reading 18 h after incubation at 37°C

Structure (SMILES) | R% = percentage of resistant strains (Escherichia coli) | MIC (Escherichia coli; [1]) | R% = percentage of resistant strains (Klebsiella pneumoniae) | MIC (Klebsiella pneumoniae; [1]) | R% = percentage of resistant strains (Proteus spp; [2]) | MIC (Proteus spp; [2]) | R% = percentage of resistant strains (Pseudomonas aeruginosa) | MIC (Pseudomonas aeruginosa; [1]) | R% = percentage of resistant strains (Salmonella spp) | MIC (Salmonella spp; [1]) | R% = percentage of resistant strains (Staphylococcus pyogenes) | MIC (Staphylococcus pyogenes; [1]) | R% = percentage of resistant strains (Staphylococcus spp) | MIC (Staphylococcus spp; [1]) | R% = percentage of resistant strains (Streptococcus ovalis) | MIC (Streptococcus ovalis; [1]) | MIC (Streptococcus spp; [1]) | MIC (Streptococcus spp; read-out: range (MIC)) | R% (resistant strains) (Gram-positive bacteria) | further results
CCn1cc(C(=O)O)c(=O)c2cnc(N3CCNCC3)nc21 [Pipemidic acid, pipemidic acid] | 30% | 4.12 mg/L (≈ 13.6 µM) | 22% | 3.79 mg/L (≈ 12.5 µM) | 26% | 10.8 mg/L (≈ 35.6 µM) | 0% | 12.3 mg/L (≈ 40.6 µM) | 9% | 17.6 mg/L (≈ 58 µM) | 44% | 36.4 mg/L (≈ 120 µM) | 30% | 39.1 mg/L (≈ 129 µM) | 66% | 65.6 mg/L (≈ 216 µM) | 75 mg/L (≈ 247 µM) | 25 to 100 mg/L (≈ 82.4 to 330 µM) |  | MIC (Pseudomonas aeruginosa; read-out: range (MIC)): 1.56 to 25 mg/L (≈ 5.14 to 82.4 µM)
CCn1cc(C(=O)O)c(=O)c2cc(F)c(N3CCNCC3)nc21 [enoxacin] |  |  |  |  |  |  |  |  |  |  |  |  |  |  |  |  |  |  | 0% | 
CCn1cc(C(=O)O)c(=O)c2ccc(C)nc21 [Nalidixic acid, nalidixic acid] | 25% | 12.4 mg/L (≈ 53.4 µM) | 22% | 12.9 mg/L (≈ 55.5 µM) | 33% | 6.58 mg/L (≈ 28.3 µM) | 50% | 5.46 mg/L (≈ 23.5 µM) | 18% | 5.2 mg/L (≈ 22.4 µM) | 94% | 100 mg/L (≈ 431 µM) | 50% | 25.6 mg/L (≈ 110 µM) | 93% | 3.12 mg/L (≈ 13.4 µM) |  | > 100 mg/L |  | R% = percentage of resistant strains (Streptococcus spp): 100%
CCn1cc(C(=O)O)c(=O)c2cc(F)c(-n3cccc3)cc21 [Acid (1), l-Ethyl-6-fluoro-l,4-dihydro-4-oxo-7-(lH-pyrrol-l-yl)quinoline-3-carboxylic acid] |  | 2 mg/L (≈ 6.66 µM) |  | 3.4 mg/L (≈ 11.3 µM) | 0% | 6.46 mg/L (≈ 21.5 µM) | 12.5% | 5.6 mg/L (≈ 18.6 µM) |  | 1.3 mg/L (≈ 4.33 µM) |  | 1.96 mg/L (≈ 6.53 µM) |  | 1.26 mg/L (≈ 4.2 µM) |  | 8.4 mg/L (≈ 28 µM) | 0.2 mg/L (≈ 0.666 µM) | 0.2 mg/L (≈ 0.666 µM) | 0% | MIC (Escherichia coli; read-out: range (MIC)): 0.2 to 12.5 mg/L (≈ 0.666 to 41.6 µM); MIC (Klebsiella pneumoniae; read-out: range (MIC)): 0.8 to 25 mg/L (≈ 2.66 to 83.3 µM); range (MIC) (Proteus spp; [2]): <0.1 to 100 mg/L; activity against Proteus spp (in words) (Proteus spp; from comparative examination of R% and nX data): highly active; activity against Pseudomonas aeruginosa (in words) (Pseudomonas aeruginosa; from comparative examination of R% and nX data, not so active as enoxacin): very active; MIC (Salmonella spp; read-out: range (MIC)): 0.1 to 3.12 mg/L (≈ 0.333 to 10.4 µM); MIC (Staphylococcus pyogenes; read-out: range (MIC)): 0.1 to 12.5 mg/L (≈ 0.333 to 41.6 µM); MIC (Staphylococcus spp; read-out: range (MIC)): 0.1 to 3.12 mg/L (≈ 0.333 to 10.4 µM); MIC (Streptococcus ovalis; read-out: range (MIC)): 0.8 to 100 mg/L (≈ 2.66 to 333 µM); R% (resistant strains) (Enterobacteriaceae): 0%
